Results published in patent publication US20240228491A1, “METHIONINE ADENOSYLTRANSFERASE INHIBITOR, PREPARATION METHOD THEREFOR AND APPLICATION THEREOF” (SCINNOHUB PHARMACEUTICAL CO., LTD., priority 2021, published 2024).

Experiments:
MAT2a = MAT2a (Homo sapiens (Human), UniProt P31153); assay: MAT2a enzymatic activity test (colorimetric assay); type: biochemical; settings: OD620, 150 min reaction, read-out: IC50 against MAT2a
Experimental: The Colorimetric assay method was used to detect the IC50 value of the tested compounds on MAT2a.
The specific steps were as follows: The compounds having the test starling concentration of 1 μM or 10 μM were diluted into 10 concentration points in a 3-fold gradient. 250 nL of the solutions of the compounds to be tested with 10 different concentrations were taken and added into a 384 well plate for later use. 20 μg/mL of MAT2a enzyme solution was prepared with Assay buffer (50 mM Tris, 50 mM KCl, 10 mM MgCl2, 0.05% polyoxyethylene lauryl ether, pH 8.0). 15 μL of the MAT2a enzyme solution at 20 μg/mL was add into the wells of the compounds to be tested at different concentrations; and 15 μL of Assay buffer was added into the negative control well. An incubation was carried out for 15 minutes after shaking for mixing well. A mixed substrate solution (comprising 400 μM ATP and 600 μM L-Methionine) was prepared with Assay buffer. 10 μL of the mixed substrate solution was added to the positive control well, the compound to be tested well, and the negative control well, respectively, and the reaction began, for a reaction time of 150 min. Then, 50 μL of the reaction stop solution (BIOMOL Green™ Reagent Enzo lifesciences, Cargo No. BML-AK111-1000) was added to stop the reaction, followed by being centrifuged at 1000 rpm for 60 s and then being incubated for 15 min. OD620 was read and data were processed.
By using the log value of the concentration as the X-axis and the inhibition % as the Y-axis, the IC50 value of each compound against enzyme activity was obtained through employing the log(inhibitor) vs. response-Variable slope fitting dose-effect curve of the analysis software GraphPad Prism 5.

KP-4 cells = assay: Inhibitory activity test of KP-4 cells; type: cell-based; settings: Homo sapiens, 144 h incubation, read-out: KP-4 cell inhibitory activity IC50
Experimental: On day 1, cell seeding: after digestion of the cells with trypsin, the cells were resuspended to 1*10^4/mL with RPMI1640 complete medium (HyClone Company, Cat. No. SH30809.01) supplemented with 10% FBS (Gibco, 10099141C), mixed evenly, and added into the 96-well plate at 100 μL/well. The plate was put back to the incubator for the adherent growth of cells. On day 2, the addition of the compounds to be tested: 100 μL of the complete medium containing the compounds (the concentration of the compound in the medium was formulated as follows: 3-fold gradient dilution from 60 μM, 10 concentration gradients in total) was added, incubated for 144 hours at 37° C., 5% CO2. On day 8, the cell culture plates were taken out from incubator and equilibrated to room temperature, excess medium was pipetted from the wells so that 50 μL of supernatant was retained, and 50 μL of CellCounting-Lite 2.0 (Nanjing Vazyme Biotech Co., Ltd., Cat. No. DD1101) reagent was added per well, and the cells were fully lysed by shaking at room temperature for 10 min, and incubated for 5 min to detect the fluorescence intensity.
(§1) % Inhibition=100−(signal of the well with the compound to be tested−signal of the well with only medium and free of cells)/(signal of the well with cells but without addition of the compound−signal of the well with only medium and free of cells)×100.
(§2) The log value of concentration was used as the X-axis and % Inhibition was used as the Y-axis, so as to fit the dose-effect curve and calculate the IC50 value using nonlinear regression (dose response−variable slope) in the analysis software GraphPad Prism 8.

DOHH-2 cells = assay: Inhibitory activity test of DOHH-2 cells; type: cell-based; settings: Homo sapiens, 120 h incubation, CellTiter-Glo, read-out: DOHH-2 cell inhibitory activity IC50
Experimental: On day 1, cell seeding: cells were resuspended to the desired density with DMEM complete medium (Gibico, Cat. No. 10569010) supplemented with 10% FBS (Gibco, 10099141C), mixed evenly, and added into the 384-well plate at 30 μL/well with a cell density of 800/well. The compounds to be tested were added as follows: 30 nL of DMSO solution containing the compound (the concentration of the compound in which was formulated as: 3-fold gradient dilution from 10 mM, 10 concentration points in total) was added, incubated for 120 h at 37° C., 5% CO2. On day 6, the cells treated with compounds were removed and equilibrated to room temperature, 30 μL of CellTiter-Glo (Promega company, Cat. No. G7573) reagent was added per well, and the cells were fully lysed by shaking at room temperature, and then incubated in dark at 37° C., 5% CO2 for 30 min, to detect the fluorescence intensity.
% Inhibition=100−(signal of the well with the compound to be tested−signal of the well with only medium and free of cells)/(signal of the well with cells but without the addition of the compound−signal of the well with only medium and free of cells)×100.
as §2

HCT116 MTAP-/- cells = assay: Activity test of HCT116 MTAP gene homozygous deletion cells (CellTiter-Glo); type: cell-based; settings: Homo sapiens, HCT-116, 120 h incubation, read-out: HCT116 MTAP-/- Cell IC50
Experimental: On day 1, cell seeding: after digestion of the cells with trypsin, the cells were resuspended to the desired density with the complete medium (RPMI-1640 supplemented with 10% FBS; the brand of FBS is EXCELL, Cat. No. FND500; the brand of RPMI-1640 is ATCC, Cat. No. 30-2001), mixed evenly, and added into the 96-well plate at 100 μL/well with a cell density of 1000-3000 cells per well. The plate was put back to the incubator for the adherent growth of cells. On day 2, the addition of the compounds to be tested: before the addition of the compounds, the cells were starved with serum-free medium for 4 h, then the complete medium containing the corresponding concentration of compounds was added thereto, and the cells were incubated at 37° C., 5% CO2 for 120 h. On day 7, the cell culture plates were taken out from incubator and equilibrated to room temperature. 50 μL of CellTiter-Glo (Promega Company, Cat. No. G7571) reagent was added per well, and the cells were fully lysed by shaking at room temperature for 2 min, and then incubated for another 60 min to detect the fluorescence intensity. Calculation formula:
as §1
The fitting dose-effect curve of the analysis software GraphPad Prism 5 was used to give IC50 values of the individual compounds against cellular activity.

Sequence of MAT2a (P31153 whole entry): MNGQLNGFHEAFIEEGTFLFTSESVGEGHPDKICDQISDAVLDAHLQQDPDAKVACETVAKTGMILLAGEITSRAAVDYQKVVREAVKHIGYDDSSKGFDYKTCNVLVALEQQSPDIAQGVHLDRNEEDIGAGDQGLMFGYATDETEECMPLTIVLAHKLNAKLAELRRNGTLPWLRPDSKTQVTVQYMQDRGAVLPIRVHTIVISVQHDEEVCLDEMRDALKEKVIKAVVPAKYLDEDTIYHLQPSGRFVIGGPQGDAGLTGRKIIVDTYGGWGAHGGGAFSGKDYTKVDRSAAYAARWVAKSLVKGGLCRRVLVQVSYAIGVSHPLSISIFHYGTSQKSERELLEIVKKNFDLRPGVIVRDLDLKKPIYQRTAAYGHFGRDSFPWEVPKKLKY

IC50 (MAT2a): 13.6 nM
IC50 (KP-4 cells): 550 nM
IC50 (HCT116 MTAP-/- cells): 15.2 nM
SMILES: COCCn1ncc2cc(-c3c(N)c4ccc(C(F)(F)F)nc4n(-c4ccc(Cl)cc4)c3=O)ccc21 [Example 47]
IC50 (DOHH-2 cells): 559 nM
